Measurements taken from US20070004660A1, “Synergistic Modulation of Flt3 Kinase Using Alkylquinolines and Alkylquinazolines” (priority 2005, published 2007).

What follows are compounds tested against T1, wild-type FLT3 receptor (Homo sapiens, UniProt P36888) (assay: Cell-based FLT3 receptor ELISA (FLT ligand-induced phosphorylation in Baf3 FLT3 cells)). Conditions: 100 ng/mL Flt ligand, uncertainty ±20%.
T1 construct: host or cells: Baf3 (murine B cell lymphoma line), stably transfected
T1 sequence (P36888 27-993): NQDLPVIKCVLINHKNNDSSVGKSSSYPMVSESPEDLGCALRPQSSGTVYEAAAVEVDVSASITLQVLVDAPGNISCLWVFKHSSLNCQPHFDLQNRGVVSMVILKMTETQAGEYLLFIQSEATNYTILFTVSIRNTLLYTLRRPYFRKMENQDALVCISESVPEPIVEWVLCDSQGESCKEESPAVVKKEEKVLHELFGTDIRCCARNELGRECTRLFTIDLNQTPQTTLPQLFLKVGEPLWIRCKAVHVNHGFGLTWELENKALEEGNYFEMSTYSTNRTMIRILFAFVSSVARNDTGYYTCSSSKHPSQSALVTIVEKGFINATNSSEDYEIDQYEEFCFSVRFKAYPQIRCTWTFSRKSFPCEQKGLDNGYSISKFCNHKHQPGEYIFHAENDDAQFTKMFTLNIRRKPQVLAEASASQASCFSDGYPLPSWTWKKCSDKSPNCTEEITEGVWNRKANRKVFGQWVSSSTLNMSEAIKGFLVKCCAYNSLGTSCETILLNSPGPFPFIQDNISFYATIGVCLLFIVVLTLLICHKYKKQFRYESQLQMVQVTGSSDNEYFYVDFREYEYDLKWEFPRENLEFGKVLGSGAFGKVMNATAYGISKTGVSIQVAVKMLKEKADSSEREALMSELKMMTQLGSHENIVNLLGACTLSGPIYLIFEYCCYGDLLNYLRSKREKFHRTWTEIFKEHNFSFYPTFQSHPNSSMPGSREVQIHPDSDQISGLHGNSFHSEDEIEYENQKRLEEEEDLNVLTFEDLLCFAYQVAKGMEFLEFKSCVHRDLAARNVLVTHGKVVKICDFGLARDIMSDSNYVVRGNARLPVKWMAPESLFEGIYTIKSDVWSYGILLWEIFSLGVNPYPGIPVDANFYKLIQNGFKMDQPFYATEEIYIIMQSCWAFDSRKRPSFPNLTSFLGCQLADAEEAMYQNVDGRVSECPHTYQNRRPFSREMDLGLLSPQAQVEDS
Method in brief: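 Receptor phosphotyrosine measured by sandwich ELISA (anti-FLT3 capture, HRP anti-pTyr, luminescence) in FLT3-transfected murine Baf3 cells given 1 h compound pretreatment and 10 min 100 ng/mL FLT ligand after overnight low-serum starvation; triplicates, IC50 from nonlinear regression.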

Row | IC50 [nM] | Structure (SMILES)
1 | 87 | CS(=O)(=O)CCNc1ccc2c(C3CCN(C(=O)Nc4ccc(N5CCOCC5)cc4)CC3)ncnc2c1 [Example 146, 4-[7-(2-Methanesulfonyl-ethylamino)-quinazolin-4-yl]-piperidine-1-carboxylic acid (4-morpholin-4-yl-phenyl)-amide]
2 | 170 | CN(C)CC(=O)N1CCN(c2ccc3c(C4CCN(C(=O)Nc5ccc(N6CCOCC6)cc5)CC4)ncnc3c2)CC1 [Example 144, 4-{7-[4-(2-Dimethylamino-acetyl)-piperazin-1-yl]-quinazolin-4-yl}-piperidine-1-carboxylic acid (4-morpholin-4-yl-phenyl)-amide]
3 | 31 | O=C1CN(c2ccc3c(C4CCN(C(=O)Nc5ccc(N6CCCC6)cc5)CC4)ncnc3c2)CCN1 [Compound 183, 4-[7-(3-Oxo-piperazin-1-yl)-quinazolin-4-yl]-piperidine-1-carboxylic acid (4-pyrrolidin-1-yl-phenyl)-amide]
4 | 10 | CS(=O)(=O)N1CC(Oc2ccc3c(C4CCN(C(=O)Nc5ccc(N6CCCC6)cc5)CC4)ncnc3c2)C1 [Example 171, 4-[7-(1-Methanesulfonyl-azetidin-3-yloxy)-quinazolin-4-yl]-piperidine-1-carboxylic acid (4-pyrrolidin-1-yl-phenyl)-amide]
5 | 36 | CCN1CCN(c2ccc3c(C4CCN(C(=O)Nc5ccc(N6CCOCC6)cc5)CC4)ncnc3c2)CC1 [Example 136, 4-[7-(4-Ethyl-piperazin-1-yl)-quinazolin-4-yl]-piperidine-1-carboxylic acid (4-morpholin-4-yl-phenyl)-amide]
6 | 12 | CCN1CCN(c2ccc3c(C4CCN(C(=O)Nc5ccc(N6CCCC6)cc5)CC4)ncnc3c2)CC1 [Compound 187, 4-[7-(4-Ethyl-piperazin-1-yl)-quinazolin-4-yl]-piperidine-1-carboxylic acid (4-pyrrolidin-1-yl-phenyl)-amide]
7 | 7 | O=C(Nc1ccc(N2CCCC2)cc1)N1CCC(c2ncnc3cc(N4CCOC4=O)ccc23)CC1 [Example 176, 4-[7-(2-Oxo-oxazolidin-3-yl)-quinazolin-4-yl]-piperidine-1-carboxylic acid (4-pyrrolidin-1-yl-phenyl)-amide]
8 | 0.2 | O=C(Nc1ccc(N2CCCC2)cc1)N1CCC(c2ncnc3cc(OCCN4CCOC4=O)ccc23)CC1 [Example 147, 4-{7-[2-(2-Oxo-oxazolidin-3-yl)-ethoxy]-quinazolin-4-yl}-piperidine-1-carboxylic acid (4-pyrrolidin-1-yl-phenyl)-amide]
9 | 11 | CS(=O)(=O)N1CCN(CCCOc2ccc3c(C4CCN(C(=O)Nc5ccc(N6CCCC6)cc5)CC4)ncnc3c2)CC1 [Example 164, 4-{7-[3-(4-Methanesulfonyl-piperazin-1-yl)-propoxy]-quinazolin-4-yl}-piperidine-1-carboxylic acid (4-pyrrolidin-1-yl-phenyl)-amide]
10 | 32 | CN1CCN(CCOc2ccc3c(C4CCN(C(=O)Nc5ccc(N6CCOCC6)cc5)CC4)ncnc3c2)CC1 [Example 156, 4-{7-[2-(4-Methyl-piperazin-1-yl)-ethoxy]-quinazolin-4-yl}-piperidine-1-carboxylic acid (4-morpholin-4-yl-phenyl)-amide]
11 | 45 | CN1CCC[C@H]1COc1ccc2c(C3CCN(C(=O)Nc4ccc(N5CCCC5)cc4)CC3)ncnc2c1 [Example 151, (S)-4-[7-(1-Methyl-pyrrolidin-2-ylmethoxy)-quinazolin-4-yl]-piperidine-1-carboxylic acid (4-pyrrolidin-1-yl-phenyl)-amide]
12 | 49 | O=C(Nc1ccc(N2CCCC2)cc1)N1CCC(c2ncnc3cc(N4CCCC4)ccc23)CC1 [Compound 179, 4-(7-Pyrrolidin-1-yl-quinazolin-4-yl)-piperidine-1-carboxylic acid (4-pyrrolidin-1-yl-phenyl)-amide]
13 | 149 | O=C(COc1ccc2c(C3CCN(C(=O)Nc4ccc(N5CCCC5)cc4)CC3)ncnc2c1)N1CCOCC1 [Example 172, 4-[7-(2-Morpholin-4-yl-2-oxo-ethoxy)-quinazolin-4-yl]-piperidine-1-carboxylic acid (4-pyrrolidin-1-yl-phenyl)-amide]
14 | 10 | O=C(Nc1ccc(N2CCCC2)cc1)N1CCC(c2ncnc3cc(-n4ccnc4)ccc23)CC1 [Compound 180, 4-(7-Imidazol-1-yl-quinazolin-4-yl)-piperidine-1-carboxylic acid (4-pyrrolidin-1-yl-phenyl)-amide]
15 | 110 | O=C(Nc1ccc(N2CCOCC2)cc1)N1CCC(c2ncnc3cc(OCCN4CCC[C@H]4CO)ccc23)CC1 [Example 153, (S)-4-{7-[2-(2-Hydroxymethyl-pyrrolidin-1-yl)-ethoxy]-quinazolin-4-yl}-piperidine-1-carboxylic acid (4-morpholin-4-yl-phenyl)-amide]
16 | 226 | CC(C)Oc1ccc(NC(=O)N2CCC(c3ncnc4ccc(N5CCN(C)CC5)cc34)CC2)cc1 [Example 131, 4-[6-(4-Methyl-piperazin-1-yl)-quinazolin-4-yl]-piperidine-1-carboxylic acid (4-isopropoxy-phenyl)-amide]
17 | 19 | CN(C)[C@@H]1CCN(c2ccc3c(C4CCN(C(=O)Nc5ccc(N6CCOCC6)cc5)CC4)ncnc3c2)C1 [Example 150, (R)-4-[7-(3-Dimethylamino-pyrrolidin-1-yl)-quinazolin-4-yl]-piperidine-1-carboxylic acid (4-morpholin-4-yl-phenyl)-amide]
18 | 93 | O=C(Nc1ccc(N2CCCC2)cc1)N1CCC(c2ncnc3cc(OCC4CCOCC4)ccc23)CC1 [Compound 188, 4-[7-(Tetrahydro-pyran-4-ylmethoxy)-quinazolin-4-yl]-piperidine-1-carboxylic acid (4-pyrrolidin-1-yl-phenyl)-amide]
19 | 104 | O=C(Nc1ccc(N2CCCC2)cc1)N1CCC(c2ncnc3cc(OC4CCOCC4)ccc23)CC1 [Compound 189, 4-[7-(Tetrahydro-pyran-4-yloxy)-quinazolin-4-yl]-piperidine-1-carboxylic acid (4-pyrrolidin-1-yl-phenyl)-amide]
20 | 130 | O=C(Nc1ccc(N2CCCC2)cc1)N1CCC(c2ncnc3cc(Oc4cccnc4)ccc23)CC1 [Example 174, 4-[7-(Pyridin-3-yloxy)-quinazolin-4-yl]-piperidine-1-carboxylic acid (4-pyrrolidin-1-yl-phenyl)-amide]
21 | 4 | CC(=O)N1CC(Oc2ccc3c(C4CCN(C(=O)Nc5ccc(N6CCCC6)cc5)CC4)ncnc3c2)C1 [Example 170, 4-[7-(1-Acetyl-azetidin-3-yloxy)-quinazolin-4-yl]-piperidine-1-carboxylic acid (4-pyrrolidin-1-yl-phenyl)-amide]
22 | 83 | O=C(Nc1ccc(N2CCOCC2)cc1)N1CCC(c2ncnc3cc(OCCN4CCOC4=O)ccc23)CC1 [Example 148, 4-{7-[2-(2-Oxo-oxazolidin-3-yl)-ethoxy]-quinazolin-4-yl}-piperidine-1-carboxylic acid (4-morpholin-4-yl-phenyl)-amide]
23 | 104 | COc1cc2ncnc(C3CCN(C(=O)Nc4ccc(N5CCOCC5)cc4)CC3)c2cc1OC [Example 18, 4-(6,7-Dimethoxy-quinazolin-4-yl)-piperidine-1-carboxylic acid (4-morpholin-4-yl-phenyl)-amide]
24 | 118 | CC(=O)N1CCC(COc2ccc3c(C4CCN(C(=O)Nc5ccc(N6CCCC6)cc5)CC4)ncnc3c2)CC1 [Example 163, 4-[7-(1-Acetyl-piperidin-4-ylmethoxy)-quinazolin-4-yl]-piperidine-1-carboxylic acid (4-pyrrolidin-1-yl-phenyl)-amide]
25 | 26 | O=C(Nc1ccc(N2CCOCC2)cc1)N1CCC(c2ncnc3cc(OCCCN4CCOCC4)ccc23)CC1 [Example 133, 4-[7-(3-Morpholin-4-yl-propoxy)-quinazolin-4-yl]-piperidine-1-carboxylic acid (4-morpholin-4-yl-phenyl)-amide]

Row | Structure (SMILES) | IC50 [nM]
26 | COc1cc2ncnc(C3CCN(C(=O)Nc4ccc(OC5CCC5)nc4)CC3)c2cc1OC [Example 17, 4-(6,7-Dimethoxy-quinazolin-4-yl)-piperidine-1-carboxylic acid (6-cyclobutoxy-pyridin-3-yl)-amide] | 292
